This is an account of results in patent US20080213410A1, “ANTI-HUMAN PAPILLOMAS VIRUS TOPICAL COMPOSITION” (priority 2007, published 2008).

The test has as its system human papillomavirus (HPV) genital warts. Nature of the test: 15 months treatment of 90 infected patients, number of recurrent warts (Example 1). In kind it is in vivo. From the text: The composition, to be applied topically or transdermally to the skin and mucous membranes, is of high interest because it triggers little or no side-effects, very little irritation, no restrictive length of application, no impact on non-infected skin, can heal surface and/or deep flesh warts and prevent the recurrence of outbreaks. The treatment consists in topically administering the composition to the HPV infected skin and mucous membranes of patients. Such physiological regions consists of, in particular, the skin of the penis, vulva (area outside the vagina), anus, scrotum, groin, or thigh and in the linings of the vagina, cervix, or rectum presenting the virus related warts. […] Two types of warts can be found in patients: acute or chronic warts. The first kind, the acute wart, can be treated by simply swiping the surface of the skin or mucous membrane with a swab, previously impregnated with the composition, and gently rubbing the skin in order to allow penetration of the composition in its deepest layers. The second kind is the chronic wart, which requires a more invasive type of treatment. Indeed, the treatment is either effected by applying to the skin or mucous surface to treat a transdermal patch, constantly and regularly diffusing the composition through the area it covers, or by using a microlet, which uses a needle rapidly piercing the skin and injecting the composition deeply in the flesh.
Posology: Application of the topical composition is effected 1 time per week through swiping of the region with a swab containing the composition in the case of an acute wart or through the use of a transdermal patch or microlet in the case of a chronic wart.
Results: Table 1 comprises the results of a 15 months treatment with the composition of the present invention on a total of 90 infected patients. Table 2 comprises the results of a 15 months treatment with liquid nitrogen on a total of 90 infected patients. The compiled data consists of the number of recurrent warts that had still developed after a 15 months treatment with either the cream of the present invention or with liquid nitrogen. These records represent direct evidence that the composition of the present invention is effective, the number of warts that had still reappeared after a 15 months long treatment of the intermittent lesion and inflammation being less important with the cream than with the liquid nitrogen. Indeed, 67% of patients treated with the composition of the present invention presented a low degree of infections after the 15 months treatment (1 to 2 recurrent warts) whereas only 13% of the patients treated with the liquid nitrogen presented similar results.

`N#N` [liquid nitrogen]: the “patients presenting a low degree of infections after the 15 months treatment (1 to 2 recurrent warts)” value (90 patients per treatment) worked out at 13%. Also, the “Number of patients with 1 to 2 recurrent warts after a 15 months treatment” value (90 patients, 1 to 2 warts) came to 12. The “Number of patients with 3 to 5 recurrent warts after a 15 months treatment” value (90 patients, 3 to 5 warts) worked out at 49. Further, the “Number of patients with 6 to 10 recurrent warts after a 15 months treatment” value (90 patients, 6 to 10 warts) came to 29.
